1 compound from article PMC12564639, “Discovery of a Novel Anticoagulant Cystine Knot Peptide from Spider Venom Gland Transcriptome” (International Journal of Molecular Sciences, 2025) can be followed below.

The test system of one series is mouse tail bleeding. In words: Tail bleeding time. It counts as in vivo, C57BL/6J mice. The conditions noted are these: n = 6; for tail bleeding time: 10 min after administration, vehicle 89.8 s. How it is done: (§1) The C57BL/6J mice (male, 6–8 weeks old) were purchased from Beijing Vital River Laboratory Animal Technology Co., Ltd. (Beijing, China). All animal studies were performed under the approval of the Ethics Committee of the Laboratory Animal Welfare of the Kunming Institute of Zoology, Chinese Academy of Sciences (IACUC-RE-2025-03-010).
The mouse tail-bleeding assay was performed to evaluate the bleeding risk associated with GC38 treatment. Male C57BL/6J mice (6–8 weeks, n = 6 per group) were randomized to receive intravenous injection of PBS (negative control), GC38 (2 or 4 mg/kg in PBS), or heparin sodium (1000 U/kg, positive control). The assay was conducted 10 min after administration. Mice were anesthetized, and a 2 mm segment of the tail tip was surgically transected using a sterile scalpel. Immediately after the incision, the tail was immersed in prewarmed PBS (37 °C) to facilitate blood flow. Bleeding time was recorded from the moment of the incision until the complete cessation of bleeding (no blood flow for 60 s).

Series [1] relates to cortical photothrombotic stroke in mice. In words: Rose Bengal-mediated cortical photothrombotic stroke (CPS) model. It counts as in vivo, mouse. The conditions noted are these: n = 6; for blood flow reduction (cerebral): laser speckle perfusion, vehicle 40.1%. How it is done: as §1
The Rose Bengal-mediated CPS model was employed to induce focal cerebral ischemia in mice. Rose Bengal (50 mg/kg), a photosensitive dye, was administered intravenously 1 h before the surgery, followed by an intravenous injection of PBS (vehicle control), GC38 (2 or 4 mg/kg), and heparin sodium (1000 U/kg) 10 min before the surgery. Briefly, mice were anesthetized and secured in a stereotaxic frame. A midline scalp incision was made to expose the skull, followed by illumination with a 562 nm yellow-green laser (R-LG561-100-A5, RWD Life Science, Shenzhen, China) for 7 min. This process generated reactive oxygen species, resulting in endothelial damage and subsequent thrombus formation. Post-illumination, the scalp was sutured, and mice were placed on a warming pad for recovery. Cerebral ischemia severity was evaluated using the LSP imaging system, and the 15-day survival rates after ischemia induction were recorded.

In series [2] the test system is human keratinocytes (HaCaT). In words: Cytotoxicity (CCK-8), HaCaT. The settings on record: 24 h, n = 3. It counts as cell-based. On the procedure: The cytotoxicity of GC38 was evaluated in human embryonic kidney cells (HEK293T), human keratinocytes (HaCaT), and murine macrophage (RAW264.7) cell lines. The cells were from Kunming Cell Bank, Chinese Academy of Sciences. HEK293T and HaCaT cells were cultured in DMEM supplemented with 10% fetal bovine serum (FBS) and 1% penicillin-streptomycin, and RAW264.7 cells were maintained in RPMI 1640 containing 10% FBS and 1% penicillin–streptomycin, with all cell lines incubated at 37 °C under 5% CO2. For cytotoxicity assessment, cells were seeded at a density of 1 × 10^5 cells per well in 96-well plates and incubated for 12 h. […] After 24 h incubation, cell viability was determined using the CCK-8 assay (10 μL/well). Absorbance was measured at 450 nm using a multi-mode microplate reader (BioTek Synergy™ H1, Winooski, VT, USA). Untreated cells and cells treated with 10% DMSO served as negative and positive controls, respectively. Viability percentages were calculated relative to the untreated control. All experiments were conducted in triplicate, and data were expressed as mean ± SEM.

For series [3], the system named is FeCl3-induced carotid artery thrombosis in mice. In words: FeCl3-induced carotid artery thrombosis model. It counts as in vivo, C57BL/6J mice. The settings on record: for blood flow reduction, carotid artery: 10 min before FeCl3, n = 6. How it is done: as §1
Male C57BL/6J mice (6–8 weeks old, n = 6 per group) were randomly assigned to groups receiving intravenous injections of PBS (vehicle control), GC38 (2 or 4 mg/kg in PBS), and heparin sodium (1000 U/kg), respectively. Ten minutes post-injection, mice were anesthetized with 2% isoflurane inhalation. The right carotid artery was surgically exposed, and endothelial injury was induced by applying a 1 × 2 mm filter paper saturated with 10% (w/v) FeCl3 solution for 30 s. Real-time blood flow was monitored using a real-time laser speckle perfusion (LSP) imaging system (RWD Life Science, Shenzhen, China) with SIM BFI software (SIM BFI HR Pro, Simopto, Beijing, China). Thrombosis progression and vessel occlusion were evaluated using real-time ultrasound imaging of the region of interest at baseline (before injury), 5, and 10 min (post-injury). The perfusion unit was recorded to quantify the blood flow. Vessel occlusion was defined as a sustained reduction in perfusion units to ≤10% of baseline for at least 3 min. Data are presented as mean ± SEM.

Peptide text beside a SMILES is read from it.

With `CSCC[C@@H]1NC(=O)[C@H](CC(N)=O)NC(=O)CNC(=O)CNC(=O)[C@H](Cc2c[nH]cn2)NC(=O)[C@H](CCCNC(=N)N)NC(=O)CNC(=O)[C@@H]2CSSC[C@@H]3NC(=O)[C@H](CCCNC(=N)N)NC(=O)[C@H](C)NC(=O)CNC(=O)[C@H](CCCCN)NC(=O)CNC(=O)[C@H](CO)NC(=O)[C@@H](NC(=O)CN)CSSC[C@H](NC(=O)[C@H](CSSC[C@@H](C(=O)N[C@@H](CCC(=O)O)C(=O)N[C@@H](Cc4c[nH]c5ccccc45)C(=O)N[C@@H](CC(N)=O)C(=O)N[C@@H](Cc4c[nH]c5ccccc45)C(=O)N[C@@H](CCCCN)C(=O)N[C@H](C(=O)NCC(=O)O)[C@@H](C)O)NC(=O)[C@H](CO)NC(=O)[C@H](CCCCN)NC(=O)[C@H](Cc4ccc(O)cc4)NC1=O)NC(=O)[C@H](CCCCN)NC(=O)[C@H](CO)NC(=O)[C@@H]1CCCN1C(=O)[C@H](C)NC3=O)C(=O)N[C@@H](CO)C(=O)NCC(=O)N[C@@H](CC(C)C)C(=O)N[C@@H](CO)C(=O)N2` [GC38] (HELM PEPTIDE1{G.C.S.G.K.G.A.R.C.A.P.S.K.C.C.S.G.L.S.C.G.R.H.G.G.N.M.Y.K.S.C.E.W.N.W.K.T.G}$PEPTIDE1,PEPTIDE1,2:R3-15:R3|PEPTIDE1,PEPTIDE1,9:R3-20:R3|PEPTIDE1,PEPTIDE1,14:R3-31:R3$$$V2.0), the tail bleeding time came out at 97.6 s with mouse tail bleeding (GC38 2 mg/kg i.v.) and 100.6 s with mouse tail bleeding (GC38 4 mg/kg i.v.). Also, in the series with mouse tail bleeding (GC38 2 and 4 mg/kg i.v.), the “tail bleeding time versus vehicle control” value was “comparable to the vehicle control group”. The entries for the “blood flow reduction (cerebral)” value in series [1] (GC38 2 mg/kg i.v. 10 min before surgery) and in series [1] (GC38 4 mg/kg i.v. 10 min before surgery) were 22.0% and 6.4%, respectively. The “microvascular occlusion and ischemic lesions” value in series [1] (GC38 4 mg/kg i.v.) is “delayed microvascular occlusion and alleviated the formation of ischemic lesions”. Also, in series [1] (versus untreated group), the 15-day survival rate result is “improved the 15-day survival rate of mice”. The “cell viability HaCaT” value in series [2] (50 μM, serum-free medium, CCK-8, 450 nm, relative to untreated control) is “greater than 95%”. The “cytotoxicity HaCaT” value in series [2] (0.1–50 μM, CCK-8) was “negligible cytotoxicity”. In addition, the FeCl3-induced vascular occlusion result in series [3] (2 and 4 mg/kg i.v., Doppler flowmetry / laser speckle perfusion) is “alleviated FeCl3-induced vascular occlusion in mice”. In addition, the “blood flow reduction, carotid artery” value turned out to be 20.6% in series [3] (GC38 2 mg/kg i.v., 5 min after 10% FeCl3); 44.0% in series [3] (GC38 2 mg/kg i.v., 10 min after 10% FeCl3); 11.8% in series [3] (GC38 4 mg/kg i.v., 5 min after 10% FeCl3); 29.4% in series [3] (GC38 4 mg/kg i.v., 10 min after 10% FeCl3).
